System: 186277-243-T-J2-PDC complex spheroid viability
Assay: Anticancer human tumor 186277-243-T-J2-PDC patient-derived colon adenocarcinoma cell line growth inhibition [POLQ]
Details: for IC50: curve of first compound; for viability, T/C: stronger effect = lower value
Procedure, shortened: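 PDC + HUVEC + MSC complex spheroids; POLQ inhibitors ± partner drugs; top conc. at/near clinical Cmax, else 10 microM (SN-38 1 microM), half-log dilutions; 37 degrees C, 5% CO2.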

[1] = second compound 0.0316 µM, first compound 0.0316 µM
[2] = second compound 0.0316 µM, first compound 0.1 µM
[3] = second compound 0.0316 µM, first compound 0.316 µM
[4] = second compound 0.0316 µM, first compound 1 µM
[5] = second compound 0.0316 µM, first compound 3.16 µM
[6] = second compound 0.0316 µM, first compound 10 µM
[7] = second compound 0.1 µM, first compound 0.0316 µM
[8] = second compound 0.1 µM, first compound 0.1 µM
[9] = second compound 0.1 µM, first compound 0.316 µM
[10] = second compound 0.1 µM, first compound 1 µM
[11] = second compound 0.1 µM, first compound 3.16 µM
[12] = second compound 0.1 µM, first compound 10 µM
[13] = second compound 0.316 µM, first compound 0.0316 µM
[14] = second compound 0.316 µM, first compound 0.1 µM
[15] = second compound 0.316 µM, first compound 0.316 µM
[16] = second compound 0.316 µM, first compound 1 µM
[17] = second compound 0.316 µM, first compound 3.16 µM
[18] = second compound 0.316 µM, first compound 10 µM
[19] = second compound 1 µM, first compound 0.0316 µM
[20] = second compound 1 µM, first compound 0.1 µM
[21] = second compound 1 µM, first compound 0.316 µM
[22] = second compound 1 µM, first compound 1 µM
[23] = second compound 1 µM, first compound 3.16 µM
[24] = second compound 1 µM, first compound 10 µM
[25] = second compound 3.16 µM, first compound 0.0316 µM
[26] = second compound 3.16 µM, first compound 0.1 µM
[27] = second compound 3.16 µM, first compound 0.316 µM
[28] = second compound 3.16 µM, first compound 1 µM
[29] = second compound 3.16 µM, first compound 3.16 µM
[30] = second compound 3.16 µM, first compound 10 µM
[31] = second compound 10 µM, first compound 0.0316 µM
[32] = second compound 10 µM, first compound 0.1 µM
[33] = second compound 10 µM, first compound 0.316 µM
[34] = second compound 10 µM, first compound 1 µM
[35] = second compound 10 µM, first compound 3.16 µM
[36] = second compound 10 µM, first compound 10 µM
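Further: spheroids exposed to compounds for seven days.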
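Wherever viability, T/C is given: 100% = DMSO vehicle control viability.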

Nc1ccn(C2OC(CO)C(O)C2(F)F)c(=O)n1 (centres undefined) + Nc1ccc(C#CCN(C(=O)Cc2ncc(C(F)(F)F)cc2C(F)(F)F)c2ccc(F)cc2)nn1
IC50 (second compound 0.0316 µM): < 0.0316 µM | IC50 (second compound 0.1 µM): < 0.0316 µM | IC50 (second compound 0.316 µM): < 0.0316 µM | IC50 (second compound 1 µM): < 0.0316 µM | IC50 (second compound 3.16 µM): < 0.0316 µM | IC50 (second compound 10 µM): < 0.0316 µM | viability, T/C [1]: 14.7% | viability, T/C [2]: 11.5% | viability, T/C [3]: 11.6% | viability, T/C [4]: 14% | viability, T/C [5]: 14% | viability, T/C [6]: 13.6% | viability, T/C [7]: 13.9% | viability, T/C [8]: 12.2% | viability, T/C [9]: 12.4% | viability, T/C [10]: 13.2% | viability, T/C [11]: 15% | viability, T/C [12]: 13.8% | viability, T/C [13]: 14.4% | viability, T/C [14]: 12.9% | viability, T/C [15]: 12.7% | viability, T/C [16]: 13.4% | viability, T/C [17]: 14.1% | viability, T/C [18]: 15.2% | viability, T/C [19]: 12.8% | viability, T/C [20]: 12% | viability, T/C [21]: 11.7% | viability, T/C [22]: 13% | viability, T/C [23]: 14.8% | viability, T/C [24]: 14.3% | viability, T/C [25]: 13% | viability, T/C [26]: 13.9% | viability, T/C [27]: 10.6% | viability, T/C [28]: 11.9% | viability, T/C [29]: 15.2% | viability, T/C [30]: 15.3% | viability, T/C [31]: 12.5% | viability, T/C [32]: 11.3% | viability, T/C [33]: 11.5% | viability, T/C [34]: 11.5% | viability, T/C [35]: 12.9% | viability, T/C [36]: 13.9%

O=c1[nH]cc(F)c(=O)[nH]1 + Nc1ccc(C#CCN(C(=O)Cc2ncc(C(F)(F)F)cc2C(F)(F)F)c2ccc(F)cc2)nn1
IC50 (second compound 0.0316 µM): > 10 µM | IC50 (second compound 0.1 µM): > 10 µM | IC50 (second compound 0.316 µM): > 10 µM | IC50 (second compound 1 µM): > 10 µM | IC50 (second compound 3.16 µM): > 10 µM | IC50 (second compound 10 µM): > 10 µM | viability, T/C [1]: 102% | viability, T/C [2]: 94.3% | viability, T/C [3]: 103% | viability, T/C [4]: 102% | viability, T/C [5]: 97.4% | viability, T/C [6]: 64.8% | viability, T/C [7]: 97.7% | viability, T/C [8]: 112% | viability, T/C [9]: 97.4% | viability, T/C [10]: 107% | viability, T/C [11]: 103% | viability, T/C [12]: 67.3% | viability, T/C [13]: 95.9% | viability, T/C [14]: 103% | viability, T/C [15]: 101% | viability, T/C [16]: 88.3% | viability, T/C [17]: 97.3% | viability, T/C [18]: 65.6% | viability, T/C [19]: 98.8% | viability, T/C [20]: 92.6% | viability, T/C [21]: 109% | viability, T/C [22]: 87.6% | viability, T/C [23]: 107% | viability, T/C [24]: 63.1% | viability, T/C [25]: 103% | viability, T/C [26]: 96.5% | viability, T/C [27]: 109% | viability, T/C [28]: 106% | viability, T/C [29]: 104% | viability, T/C [30]: 61% | viability, T/C [31]: 109% | viability, T/C [32]: 106% | viability, T/C [33]: 101% | viability, T/C [34]: 102% | viability, T/C [35]: 90.6% | viability, T/C [36]: 52.4%

Reference: PubChem BioAssay AID1963854 (Molecular Pharmacology Branch, DTP, NCI, 2024)
